Data on 2 molecules can be found in the NIST ThermoML archive (doi:10.1021/acs.jced.8b00666).

For the data set the following is noted: Crystal; Heating/Cooling curves.

± gives the expanded uncertainty stated by the source.

As to `O.O=P(O)(O)O.O=P(O)(O)O` [phosphoric acid hemihydrate], the Normal melting temperature turned out to be 29.2 ± 0.21 °C.

On to `C1CCCCC1` [cyclohexane], for which the Normal melting temperature was found to be 6.80 ± 0.2 °C.
